Patent US8436043B2 (Takeda Pharmaceutical Company Limited, priority 2008, dated 2013)

What follows are compounds tested against T1, human glucagon receptor (Homo sapiens, UniProt P47871) (assay: Glucagon binding inhibitory activity ([125I]-glucagon binding to glucagon receptor membrane protein)). Conditions: human glucagon receptor membrane protein, [125I]-glucagon, 90 min room temperature.
T1 construct: made in house; host or cells: FreeStyle CHO cells, transient transfection with pMSRαneo/hGCGR; membrane fraction (35,000 rpm pellet)
T1 sequence (P47871 26-477): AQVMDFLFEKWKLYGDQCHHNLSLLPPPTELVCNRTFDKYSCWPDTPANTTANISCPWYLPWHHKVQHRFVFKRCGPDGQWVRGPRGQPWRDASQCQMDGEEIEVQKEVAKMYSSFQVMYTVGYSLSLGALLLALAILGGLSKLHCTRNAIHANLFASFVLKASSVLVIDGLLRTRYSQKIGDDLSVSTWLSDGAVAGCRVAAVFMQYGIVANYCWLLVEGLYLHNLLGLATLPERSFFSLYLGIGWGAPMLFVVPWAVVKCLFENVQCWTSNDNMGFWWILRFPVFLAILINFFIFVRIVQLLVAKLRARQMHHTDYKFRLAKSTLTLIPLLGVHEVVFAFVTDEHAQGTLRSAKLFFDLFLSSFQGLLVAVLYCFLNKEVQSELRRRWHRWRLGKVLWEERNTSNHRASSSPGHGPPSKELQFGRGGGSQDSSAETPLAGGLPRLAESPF
Method in brief: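 Receptor source was a membrane fraction of transiently transfected CHO cells bearing human receptor; 90 min room-temperature binding, filtration harvest, scintillation counting.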

Structure (SMILES) | IC50 [µM]
COCc1c(C(Nc2ccc(C(=O)N(C)CCC(=O)O)cc2)C2CCCCC2)oc2ccc(F)cc12 (single isomer, unassigned) [Example A49, 3-[{[4-({cyclohexyl[5-fluoro-3-(methoxymethyl)-1-benzofuran-2-yl]methyl}amino)phenyl]carbonyl}(methyl)amino]propanoic acid] | 0.64

Same assay, conditions: test compound 10 μM; 0.4% DMSO = 0%, non-labeled glucagon 1 μM = 100%

Structure (SMILES) | inhibitory rate (%) at 10 μM [%]
Cc1c(C(Nc2ccc(C(=O)N(C)CCC(=O)O)cc2)C2CCCC2)oc2ccc(F)cc12 (stereo not drawn) [Example A69] | 89
Cc1c(C(Nc2ccc(C(=O)N(C)CCC(=O)O)cn2)C2CCCCC2)oc2ccc(F)cc12 (stereo not drawn) [Example A54, 3-{[(6-{[cyclohexyl(5-fluoro-3-methyl-1-benzofuran-2-yl)methyl]amino}pyridin-3-yl)carbonyl](methyl)amino}propanoic acid] | 52

Same assay, conditions: test compound 10 μM; 0.4% DMSO = 0%, non-labeled glucagon 1 μM = 100%; read-out: inhibitory rate (%) at 10 μM

Structure (SMILES) | inhibition at 10 µM [%]
COc1ccc(-n2cc(C(CC(C)C)Nc3ccc(C(=O)NCCC(=O)O)cc3)c(C3CC3)n2)cc1 (stereo not drawn) [Example 44, 3-({[4-({1-[3-cyclopropyl-1-(4-methoxyphenyl)-1H-pyrazol-4-yl]-3-methylbutyl}amino)phenyl]carbonyl}amino)propanoic acid] | 69
COc1ccccc1-n1cc(C)c(C(Nc2ccc(C(=O)N(C)CCC(=O)O)cc2)C2CCCCC2)n1 (stereo not drawn) [Example 77, 3-[{[4-({cyclohexyl[1-(2-methoxyphenyl)-4-methyl-1H-pyrazol-3-yl]methyl}amino)phenyl]carbonyl}(methyl)amino]propanoic acid] | 55
Cc1c(C(Nc2ccc(C(=O)N(C)CCC(=O)O)cc2)C2CCCCC2)oc2ccccc12 (stereo not drawn) [Example A16, 3-{[(4-{[cyclohexyl(3-methyl-1-benzofuran-2-yl)methyl]amino}phenyl)carbonyl](methyl)amino}propanoic acid] | 74
COCc1nn(-c2ccc(C(F)(F)F)cn2)cc1C(Nc1ccc(C(=O)N(C)CCC(=O)O)cc1)C1CCCCC1 (stereo not drawn) [Example 30, 3-[({4-[(cyclohexyl{3-(methoxymethyl)-1-[5-(trifluoromethyl)pyridin-2-yl]-1H-pyrazol-4-yl}methyl)amino]phenyl}carbonyl)(methyl)amino]propanoic acid] | 75
COc1ccc(-n2cc(C(CC(C)C)Nc3ccc(C(=O)NCCC(=O)O)cc3)c(C(C)C)n2)cc1 (stereo not drawn) [Example 54, 3-({[4-({1-[1-(4-methoxyphenyl)-3-(1-methylethyl)-1H-pyrazol-4-yl]-3-methylbutyl}amino)phenyl]carbonyl}amino)propanoic acid] | 62
Cc1c(C(Nc2ccc(C(=O)NCCC(=O)O)cc2)C(C)C)oc2ccc(F)cc12 (stereo not drawn) [Example A193, 3-{[(4-{[1-(5-fluoro-3-methyl-1-benzofuran-2-yl)-2-methylpropyl]amino}phenyl)carbonyl]amino}propanoic acid] | 80
Cc1c(C(C)Nc2ccc(C(=O)NCCC(=O)O)cc2)oc2ccc(OCc3ccccc3)cc12 (stereo not drawn) [Example A165, 3-({[4-({1-[5-(benzyloxy)-3-methyl-1-benzofuran-2-yl]ethyl}amino)phenyl]carbonyl}amino)propanoic acid] | 85
COCc1c(C(Nc2ccc(C(=O)N(C)CCC(=O)O)cc2)C2CCCCC2)oc2ccc(F)cc12 (single isomer, unassigned) [Example A49, 3-[{[4-({cyclohexyl[5-fluoro-3-(methoxymethyl)-1-benzofuran-2-yl]methyl}amino)phenyl]carbonyl}(methyl)amino]propanoic acid] | 86
Cc1c(C(Nc2ccc(C(=O)N(C)CCC(=O)O)cc2)C2CCCCC2)oc2ccc(N3CCOCC3)cc12 (stereo not drawn) [Example A186, 3-[{[4-({cyclohexyl[3-methyl-5-(morpholin-4-yl)-1-benzofuran-2-yl]methyl}amino)phenyl]carbonyl}(methyl)amino]propanoic acid] | 85
CCC(C)(C)n1cc(C(Nc2ccc(C(=O)NCCC(=O)O)cc2)C2CCCCC2)c(C)n1 (stereo not drawn) [Example 43, 3-({[4-({cyclohexyl[1-(1,1-dimethylpropyl)-3-methyl-1H-pyrazol-4-yl]methyl}amino)phenyl]carbonyl}amino)propanoic acid] | 54
Cc1cc(F)ccc1-n1cc(C(Nc2ccc(C(=O)NCCC(=O)O)cc2)C2CCCCC2)c(C)n1 (stereo not drawn) [Example 21, 3-({[4-({[1-(4-fluoro-2-methylphenyl)-3-methyl-1H-pyrazol-4-yl](cyclohexyl)methyl}amino)phenyl]carbonyl}amino)propanoic acid] | 77
COCCCCC(Nc1ccc(C(=O)N(C)CCC(=O)O)cc1)c1oc2ccc(OC)cc2c1C (stereo not drawn) [Example A124, 3-{[(4-{[5-methoxy-1-(5-methoxy-3-methyl-1-benzofuran-2-yl)pentyl]amino}phenyl)carbonyl](methyl)amino}propanoic acid] | 51
Cc1c(C(Nc2ccc(C(=O)N(C)CCC(=O)O)cc2)C2CCCCC2)oc2ccc(OCc3ccc(Cl)nc3)cc12 (stereo not drawn) [Example A170, 3-{[(4-{[{5-[(6-chloropyridin-3-yl)methoxy]-3-methyl-1-benzofuran-2-yl}(cyclohexyl)methyl]amino}phenyl)carbonyl](methyl)amino}-propanoic acid] | 89
CCc1nn(-c2cccc(OC)c2)cc1C(Nc1ccc(C(=O)N(C)CCC(=O)O)cc1)C1CCCCC1 (stereo not drawn) [Example 78, 3-[{[4-({cyclohexyl[3-ethyl-1-(3-methoxyphenyl)-1H-pyrazol-4-yl]methyl}amino)phenyl]carbonyl}(methyl)amino]propanoic acid] | 69
Cc1c(C(C)Nc2ccc(C(=O)N(C)CCC(=O)O)cc2)oc2ccc(OCc3ccccc3)cc12 (stereo not drawn) [Example A166, 3-[{[4-({1-[5-(benzyloxy)-3-methyl-1-benzofuran-2-yl]ethyl}amino)phenyl]carbonyl}(methyl)amino]propanoic acid] | 75
Cc1c(C(Nc2ccc(C(=O)N(C)CCC(=O)O)cc2)C2CCCCC2)oc2ccc(OCc3ccnc(F)c3)cc12 (stereo not drawn) [Example A168, 3-[({4-[(cyclohexyl{5-[(2-fluoropyridin-4-yl)methoxy]-3-methyl-1-benzofuran-2-yl}methyl)amino]phenyl}carbonyl)(methyl)amino]propanoic acid] | 90
Cc1c(C(Nc2ccc(C(=O)N(C)CCC(=O)O)cc2)C2CCCCC2)sc2cc(C(F)(F)F)cnc12 (stereo not drawn) [Example A146, 3-[{[4-({cyclohexyl[3-methyl-6-(trifluoromethyl)thieno[3,2-b]pyridin-2-yl]methyl}amino)phenyl]carbonyl}(methyl)amino]propanoic acid] | 77
Cc1nn(-c2ccc(Cl)cc2)cc1C(Nc1ccc(C(=O)NCCC(=O)O)cc1)C1CCCCC1 (stereo not drawn) [Example 19, 3-({[4-({[1-(4-chlorophenyl)-3-methyl-1H-pyrazol-4-yl](cyclohexyl)methyl}amino)phenyl]carbonyl}amino)propanoic acid] | 80
Cc1c(C(Nc2ccc(C(=O)N(C)CCC(=O)O)cc2)C(C)C)oc2ccc(OC3CCSCC3)cc12 (stereo not drawn) [Example A204, 3-(methyl{[4-({2-methyl-1-[3-methyl-5-(tetrahydro-2H-thiopyran-4-yloxy)-1-benzofuran-2-yl]propyl}amino)phenyl]carbonyl}amino)propanoic acid] | 86
Cc1c(C(Nc2ccc(C(=O)NCCC(=O)O)cc2)C2CCCCC2)sc2cccnc12 (stereo not drawn) [Example A144, 3-{[(4-{[cyclohexyl(3-methylthieno[3,2-b]pyridin-2-yl)methyl]amino}phenyl)carbonyl]amino}propanoic acid] | 82
CCC(CC)C(Nc1ccc(C(=O)N(C)CCC(=O)O)cc1)c1sc2ccccc2c1C (stereo not drawn) [Example A135, 3-{[(4-{[2-ethyl-1-(3-methyl-1-benzothiophen-2-yl)butyl]amino}phenyl)carbonyl](methyl)amino}propanoic acid] | 76
